Measured values reported in ChEMBL document CHEMBL6177981, “Bardoxolone Derivatives as Novel Pseudo-Natural Necroptosis Inhibitors by Destabilizing HSP90 Client Proteins” (J Med Chem, 2025).
Activity calls are given as the source filed them.

What was measured:
Mus musculus [1] = experiment: (§1) Anti-necroptotic activity in TNFalpha/Z-VAD-FMK induced SIRS male C57BL/6J mouse model assessed as reduction in IL6 in kidney at 5 to 10 mg/kg, po pre-administered with compound via gavage for 2 hrs followed by […] of Z-VAD-FMK stimulation for 15 mins with subsequent TNF-alpha stimulation for 1 hrs and re-current […] of Z-VAD-FMK stimulation and measured after 8 hrs post SIRS induction by ELISA; format: functional, organism-based; details: dose 5-10 mg/kg, time 10.0 hrs
Mus musculus [2] = experiment: as §1, with “liver” for “kidney”; format: functional, organism-based; details: dose 5-10 mg/kg, time 10.0 hrs
HT-29 [3] = experiment: Anti-apoptotic activity in TC-induced human HT-29 cells assessed as increase in cell viability at 1.25 to 20 uM preincubated with compound followed by TNF-alpha and cycloheximide addition and measured after 24 hrs by CellTiter-Lumi luminescent cell viability assay; format: functional, cell-based; details: dose 1.25-20 µM
HT-29 [4] = experiment: Downregulation of RIPK1 protein level in human HT-29 cells at 6 uM preincubated with Z-VAD-FMK for 2 hrs followed by compound addition and measured after 9 hrs by Western blot analysis; format: functional, cell-based
HT-29 [5] = experiment: Effect on cell morphology in TSZ-induced necroptotic human HT-29 cells at 10 uM measured after 12 hrs by Live-cell super-resolution panoramic microscopic analysis; format: functional, cell-based
[6] = Acute toxicity in male C57BL/6J mouse assessed as inflammatory cell infiltration in spleen at 2 g/Kg, IG measured after 72 hrs by H and E staining based analysis; format: tissue-based; details: in vivo, po, 2000 mg/kg
HT-29 [7] = experiment: Downregulation of RIPK1 protein level in human HT-29 cell precipitate at 6 uM measured after 9 hrs by Western blot analysis; format: functional, cell-based
HT-29 [8] = experiment: Anti-apoptotic activity in TS-induced human HT-29 cells assessed as increase in cell viability at 1.25 to 20 uM preincubated with compound followed by TNF-alpha and SM164 addition and measured after 36 hrs by CellTiter-Lumi luminescent cell viability assay; format: functional, cell-based; details: dose 1.25-20 µM
[9] = Acute toxicity in male C57BL/6J mouse assessed as hemorrhage in kidney at 2 g/Kg, IG measured after 72 hrs by H and E staining based analysis; format: tissue-based; details: in vivo, po, 2000 mg/kg
[10] = Tmax in Sprague-Dawley rat at 10 mg/kg, IG measured after 24 hrs by LC-MS/MS analysis; format: ADME, organism-based; details: in vivo, po
Mus musculus [11] = experiment: as §1, with “IL-1beta” for “IL6”, “spleen” for “kidney”; format: functional, organism-based; details: dose 5-10 mg/kg, time 10.0 hrs
HeLa [12] = experiment: Downregulation of EGFR expression in RIPK3-deficient human HeLa cells at 0.75 to 6 uM incubated for 9 hrs by Western blot analysis; format: functional, cell-based; details: dose 0.75-6 µM
HT-29 [13] = experiment: Downregulation of RIPK1 protein level in human HT-29 cells at 6 uM preincubated with MLN4924 for 2 hrs followed by compound addition and measured after 9 hrs by Western blot analysis; format: functional, cell-based
[14] = Acute toxicity in male C57BL/6J mouse assessed as inflammatory cell infiltration in lung at 2 g/Kg, IG measured after 72 hrs by H and E staining based analysis; format: tissue-based; details: in vivo, po, 2000 mg/kg
[15] = Acute toxicity in male C57BL/6J mouse assessed as effect on ALP level at 2 g/Kg, IG measured after 72 hrs; details: in vivo, po, 2000 mg/kg
[16] = Acute toxicity in male C57BL/6J mouse assessed as hemorrhage in brain at 2 g/Kg, IG measured after 72 hrs by H and E staining based analysis; format: tissue-based; details: in vivo, po, 2000 mg/kg
HT-29 [17] = experiment: Downregulation of RIPK1 protein level in human HT-29 cells at 6 uM preincubated with NH4Cl for 2 hrs followed by compound addition and measured after 9 hrs by Western blot analysis; format: functional, cell-based
[18] = biological target: T1, Receptor-interacting serine/threonine-protein kinase 1 (Homo sapiens) (UniProt Q13546); experiment: Inhibition of RIPK1 activation in TSZ-induced human HT-29 cells at 10 uM preincubated with compound followed by Z-VAD-FMK, SM164 and TNFalpha stimulation and measured after 6 hrs by Western blot analysis; format: cell-based
T1 sequence (whole entry): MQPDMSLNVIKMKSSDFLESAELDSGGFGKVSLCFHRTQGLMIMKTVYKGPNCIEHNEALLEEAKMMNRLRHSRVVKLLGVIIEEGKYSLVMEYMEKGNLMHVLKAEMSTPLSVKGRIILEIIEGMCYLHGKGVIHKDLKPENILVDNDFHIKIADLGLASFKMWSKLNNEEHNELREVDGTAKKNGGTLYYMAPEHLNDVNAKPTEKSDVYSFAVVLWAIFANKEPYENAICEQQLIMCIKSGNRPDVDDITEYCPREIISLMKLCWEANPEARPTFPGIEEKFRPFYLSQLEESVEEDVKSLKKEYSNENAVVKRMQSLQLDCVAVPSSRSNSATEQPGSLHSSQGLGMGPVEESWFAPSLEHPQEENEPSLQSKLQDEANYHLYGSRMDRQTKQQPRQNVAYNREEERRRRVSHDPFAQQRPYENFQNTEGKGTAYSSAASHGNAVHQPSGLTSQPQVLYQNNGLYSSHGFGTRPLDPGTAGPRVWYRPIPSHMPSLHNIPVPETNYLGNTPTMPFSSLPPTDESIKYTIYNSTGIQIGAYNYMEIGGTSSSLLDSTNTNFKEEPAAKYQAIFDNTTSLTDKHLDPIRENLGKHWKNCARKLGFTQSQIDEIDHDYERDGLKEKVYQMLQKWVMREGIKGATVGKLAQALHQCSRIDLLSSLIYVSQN

HT-29 [19] = experiment: Anti-necroptotic activity in TSZ-induced human HT-29 cells assessed as increase in cell viability preincubated with compound followed by Z-VAD-FMK, SM164 and TNFalpha addition and measured after 12 hrs by CellTiter-Lumi luminescent cell viability assay; format: functional, cell-based; details: dose 0.156-10 µM
[20] = biological target: Heat shock protein HSP 90-alpha (Homo sapiens, UniProt P07900); experiment: Binding affinity to N-terminal 6His/SUMO-tagged recombinant human HS90AA1 assessed as dissociation constant incubated for 30 mins by MST analysis
HT-29 [21] = experiment: Downregulation of RIPK3 protein level in human HT-29 cells incubated for 9 hrs by Western blot analysis; format: functional, cell-based; details: dose 0.75-6 µM
HT-29 [22] = experiment: Downregulation of RIPK1 protein level in human HT-29 cells incubated for 9 hrs by Western blot analysis; format: functional, cell-based; details: dose 0.75-6 µM
[23] = Acute toxicity in male C57BL/6J mouse assessed as structural changes in intestine at 2 g/Kg, IG measured after 72 hrs by H and E staining based analysis; format: tissue-based; details: in vivo, po, 2000 mg/kg
EOL1 = experiment: Anti-necroptotic activity in TSZ-induced human EOL1 cells assessed as increase in cell viability at 2.5 to 20 uM preincubated with compound followed by Z-VAD-FMK, SM164 and TNFalpha addition and measured after 7 hrs by CellTiter-Lumi luminescent cell viability assay relative to control; format: functional; details: dose 2.5-20 µM
HT-29 [24] = experiment: Downregulation of MLKL protein level in human HT-29 cells at 6 uM preincubated with NH4Cl for 2 hrs followed by compound addition and measured after 9 hrs by Western blot analysis; format: functional, cell-based
HeLa [25] = experiment: Inhibition of RIPK1 protein expression in RIPK3-deficient human HeLa cells at 6 uM preincubated with NH4Cl for 2 hrs followed by compound addition and measured after 9 hrs by Western blot analysis; format: functional, cell-based

Cn1ccc(-c2ccc(NC(=O)[C@]34CCC(C)(C)C[C@H]3[C@H]3C(=O)C=C5[C@@]6(C)C=C(C#N)C(=O)C(C)(C)[C@@H]6CC[C@@]5(C)[C@]3(C)CC4)cc2)n1
Non-toxic: Activity [6] | Activity [9] | Activity [14] | Activity [15] | Activity [16] | Activity [23]
14 h: Tmax [10]
inactive: Activity (HT-29 [3]) | Activity (HT-29 [7]) | Activity (HT-29 [8])
185 nM: Kd [20]
active: Activity (Mus musculus [1]) | Activity (Mus musculus [2]) | Activity (HT-29 [4]) | Activity (HT-29 [5]) | Activity (Mus musculus [11]) | Activity (HeLa [12]) | Activity (HT-29 [13]) | Activity (HT-29 [17]) | inhibition [18] | Activity (HT-29 [19]) Dose-dependent-effect | Activity (HT-29 [21]) Dose-dependent-effect | Activity (HT-29 [22]) Dose-dependent-effect | Activity (HT-29 [24]) | inhibition (HeLa [25])
100%: Activity (EOL1)
